Assay results taken from patent publication US8933224B2, “Triazine derivatives” (Pfizer Inc., priority 2013, dated 2015).

Legend:
[1] = target: human recombinant PDE10 enzyme (PDE10A) (Homo sapiens, UniProt Q9Y233); assay: PDE10 scintillation proximity assay (SPA), inhibition of human recombinant PDE10 enzyme activity; format: biochemical; details: geometric mean of 2-4 determinations unless otherwise indicated (b: ≧5 determinations; c: single determination)
Procedure: PDE10 activity was measured using a scintillation assay (SPA-based method) similar to that previously described by Seeger, T. F. et al., Brain Research 985 (2003) 113-126. The compounds' relative activity as PDE10 inhibitors was investigated by assaying a fixed amount of enzyme in the presence of the test compound and low substrate concentration (cAMP) such that an IC50 could be determined. […] The assay is performed in a 384-well format with 50 μL assay buffer (50 mM TRIS pH 7.5; 1.3 mM MgCl2; 0.01% Brij) containing enough PDE10 to convert ˜20% of 20 nM ^3H-cAMP, and a range of inhibitors. Reactions are incubated for 30 minutes at 25° C. The addition of 20 μL of 8 mg/ml yttrium silicate SPA beads (PerkinElmer) stops the reaction. The plates are sealed (TopSeal, PerkinElmer) and the beads are allowed to settle for 8 hrs, after which they are read on the Trilux Microbeta overnight. ^1Rat enzyme preparation:^2Human enzyme preparation:
Human PDE10A coding sequence (amino acids 21 to 797 from the sequence with accession number NP_001124162.1) was synthesized using codon optimization for insect expression and cloned into the baculovirus expression vector pFastBac (Invitrogen) engineered to include a N-terminal His6 affinity tag to aid in purification as described in Seeger, T. F. et al., Brain Research 985 (2003) 113-126. The recombinant Bacmid was isolated and used to transfect sf9 insect cells to generate a viral stock. To generate cell paste for purification, sf21 cells were infected with the virus stock and cells were harvested 72 hours after infection as described in Seeger, T. F. et al., Brain Research 985 (2003) 113-126. Insect cell paste was lysed and after centrifugation, the supernatant was chromatographed on Ni-NTA agarose (Qiagen) as described in Seeger, T. F. et al., Brain Research 985 (2003) 113-126. Ni-NTA agarose eluting fractions containing PDE10A were chromatographed on Superdex 200 (GE Healthcare Life Sciences) in 50 mM Tris HCl pH 7.5, 150 mM NaCl, 1 mM EDTA, 10% glycerol, 2 mM TCEP, 1.5 mM benzamidine, EDTA-free protease inhibitors (Roche), and 5 μM E-64.

[2] = target: rat PDE10 enzyme (Rattus norvegicus (Rat), UniProt Q9QYJ6); assay: PDE10 scintillation proximity assay (SPA), inhibition of rat PDE10 enzyme activity; format: biochemical; details: geometric mean of 2-4 determinations unless otherwise indicated (b: ≧5 determinations; c: single determination)
Sequence of rat PDE10 enzyme (Q9QYJ6 24-794): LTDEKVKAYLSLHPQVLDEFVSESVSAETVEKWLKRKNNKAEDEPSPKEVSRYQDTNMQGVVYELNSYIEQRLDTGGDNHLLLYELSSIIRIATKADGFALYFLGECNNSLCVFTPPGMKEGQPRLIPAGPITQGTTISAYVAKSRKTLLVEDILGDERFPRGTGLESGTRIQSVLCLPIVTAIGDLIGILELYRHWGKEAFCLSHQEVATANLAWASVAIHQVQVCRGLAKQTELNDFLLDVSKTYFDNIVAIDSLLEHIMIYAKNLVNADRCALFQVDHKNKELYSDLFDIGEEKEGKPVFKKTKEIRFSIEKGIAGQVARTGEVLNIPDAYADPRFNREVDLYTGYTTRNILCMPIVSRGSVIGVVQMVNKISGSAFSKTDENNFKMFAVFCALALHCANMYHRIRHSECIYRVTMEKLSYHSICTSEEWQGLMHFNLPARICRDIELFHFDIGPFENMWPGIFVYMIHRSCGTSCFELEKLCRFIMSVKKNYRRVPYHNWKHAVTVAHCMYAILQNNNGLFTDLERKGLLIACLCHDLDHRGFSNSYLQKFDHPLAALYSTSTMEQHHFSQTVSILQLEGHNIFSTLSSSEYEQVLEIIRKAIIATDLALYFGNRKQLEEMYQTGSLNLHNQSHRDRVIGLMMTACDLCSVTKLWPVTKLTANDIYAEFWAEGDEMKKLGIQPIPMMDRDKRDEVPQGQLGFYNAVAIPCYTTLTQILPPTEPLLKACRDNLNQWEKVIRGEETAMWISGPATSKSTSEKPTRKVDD
Method in brief: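 SPA with fixed recombinant PDE10 (Sf21-expressed, Ni-NTA and Mono Q purified) converting ~20% of 20 nM ³H-cAMP in 50 mM TRIS pH 7.5, 1.3 mM MgCl2, 0.01% Brij, across an inhibitor range.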

Compound	IC50 [1]	IC50 [2]
Cc1nc([C@H]2CCCO2)c2c(N3CCc4cnn(C)c4C3)ncnn12 (single isomer, unassigned) [Example 13]	7.59 nM	
Cc1nc([C@@H]2CCOC2)c2c(N3Cc4c(cnn4C)[C@H](C)C3)ncnn12 (single isomer, unassigned) [Example 20]	2.51 nM	1.72 nM
Cc1nc(-c2ccccc2F)c2c(N3CCc4nc(C5CC5)ncc4C3)ncnn12 [Example 1, 2-Cyclopropyl-6-[5-(2-fluorophenyl)-7-methylimidazo[5,1-f][1,2,4]triazin-4-yl]-5,6,7,8-tetrahydropyrido[4,3-d]pyrimidine]	5.93 nM	4.23 nM
Cc1nc(-c2ccccc2F)c2c(N3CCc4cnn(C)c4C3)ncnn12 [Example 2, 5-(2-Fluorophenyl)-7-methyl-4-(1-methyl-1,4,5,7-tetrahydro-6H-pyrazolo[3,4-c]pyridin-6-yl)imidazo[5,1-f][1,2,4]triazine]	3.28 nM	2.95 nM
Cc1nc([C@@H]2CCOC2)c2c(N3CCc4cccnc4C3)ncnn12 [Example 3, 7-{7-Methyl-5-[(3S)-tetrahydrofuran-3-yl]imidazo[5,1-f][1,2,4]triazin-4-yl}-5,6,7,8-tetrahydro-1,7-naphthyridine]	0.785 nM	0.607 nM
Cc1nc([C@@H]2CCOC2)c2c(N3CCc4cnn(C)c4C3)ncnn12 [Example 8, 7-Methyl-4-(1-methyl-1,4,5,7-tetrahydro-6H-pyrazolo[3,4-c]pyridin-6-yl)-5-[(3S)-tetrahydrofuran-3-yl]imidazo[5,1-f][1,2,4]triazine]	3.41 nM	2.36 nM
Cc1nc([C@@H]2CCOC2)c2c(N3CCc4nc(C5CC5)oc4C3)ncnn12 [Example 9, 4-(2-Cyclopropyl-6,7-dihydro[1,3]oxazolo[5,4-c]pyridin-5(4H)-yl)-7-methyl-5-[(3S)-tetrahydrofuran-3-yl]imidazo[5,1-f][1,2,4]triazine]	1.14 nM	0.892 nM
COc1ccc2c(n1)CN(c1ncnn3c(C)nc([C@@H]4CCOC4)c13)CC2 [Example 19, 2-methoxy-7-{7-methyl-5-[(3S)-tetrahydrofuran-3-yl]imidazo[5,1-f][1,2,4]triazin-4-yl}-5,6,7,8-tetrahydro-1,7-naphthyridine]	2.75 nM	2.04 nM
Cc1nc(C2CCOCC2)c2c(N3CCc4c(c(C(C)C)nn4C)C3)ncnn12 [Example 21, 4-(3-isopropyl-1-methyl-1,4,6,7-tetrahydro-5H-pyrazolo[4,3-c]pyridin-5-yl)-7-methyl-5-(tetrahydro-2H-pyran-4-yl)imidazo[5,1-f][1,2,4]triazine]	0.876 nM	0.51 nM
Cc1nc2c(s1)CN(c1ncnn3c(C)nc([C@H]4CCOC4)c13)CC2 [Example 23, 7-methyl-4-(2-methyl-6,7-dihydro[1,3]thiazolo[5,4-c]pyridin-5(4H)-yl)-5-[(3R)-tetrahydrofuran-3-yl]imidazo[5,1-f][1,2,4]triazine]	2.53 nM	< 5.55 nM
COc1cnc2c(c1)CN(c1ncnn3c(C)nc(-c4ccccc4F)c13)CC2 [Example 25, 6-[5-(2-fluorophenyl)-7-methylimidazo[5,1-f][1,2,4]triazin-4-yl]-3-methoxy-5,6,7,8-tetrahydro-1,6-naphthyridine]	1.41 nM	1.12 nM
COc1ccc2c(n1)CCN(c1ncnn3c(C)nc([C@@H]4CCOC4)c13)C2 [Example 27, 2-methoxy-6-{7-methyl-5-[(3S)-tetrahydrofuran-3-yl]imidazo[5,1-f][1,2,4]triazin-4-yl}-5,6,7,8-tetrahydro-1,6-naphthyridine]	0.891 nM	0.617 nM
Cc1nc(-c2ccccc2F)c2c(N3CCc4nc(C5CC5)n(C)c(=O)c4C3)ncnn12 [Example 142, 2-cyclopropyl-6-[5-(2-fluorophenyl)-7-methylimidazo[5,1-f][1,2,4]triazin-4-yl]-3-methyl-5,6,7,8-tetrahydropyrido[4,3-d]pyrimidin-4(3H)-one]	1.31 nM	
CNc1ccc2c(n1)CCN(c1ncnn3c(C)nc(-c4ccccc4F)c13)C2 [Example 153, 6-[5-(2-fluorophenyl)-7-methylimidazo[5,1-f][1,2,4]triazin-4-yl]-N-methyl-5,6,7,8-tetrahydro-1,6-naphthyridin-2-amine]		0.436 nM
Cc1nc(-c2ccccc2F)c2c(N3CCc4c(O)nc(C5CCCC5)nc4C3)ncnn12 [Example 160, 2-cyclopentyl-7-[5-(2-fluorophenyl)-7-methylimidazo[5,1-f][1,2,4]triazin-4-yl]-5,6,7,8-tetrahydropyrido[3,4-d]pyrimidin-4-ol]		3.76 nM
Cc1nc([C@@H]2CCOC2)c2c(N3CCc4nccnc4C3)ncnn12 [Example 171, 6-{7-methyl-5-[(3S)-tetrahydrofuran-3-yl]imidazo[5,1-f][1,2,4]triazin-4-yl}-5,6,7,8-tetrahydropyrido[3,4-b]pyrazine]		2.55 nM
Cc1nc(-c2ccccc2F)c2c(N3CCc4ncnc(O)c4C3)ncnn12 [Example 172, 6-[5-(2-fluorophenyl)-7-methylimidazo[5,1-f][1,2,4]triazin-4-yl]-5,6,7,8-tetrahydropyrido[4,3-d]pyrimidin-4-ol]		11.3 nM

More lines, in order of falling IC50 [2], values ahead:

IC50 [1]	IC50 [2]	Compound
0.406 nM	0.364 nM	Cc1nc([C@@H]2CCOC2)c2c(N3CCc4noc(C5CC5)c4C3)ncnn12 [Example 6, 4-(3-Cyclopropyl-6,7-dihydro[1,2]oxazolo[4,3-c]pyridin-5(4H)-yl)-7-methyl-5-[(3S)-tetrahydrofuran-3-yl]imidazo[5,1-f][1,2,4]triazine]
0.427 nM	0.299 nM	Cc1nc([C@@H]2CCOC2)c2c(N3CCc4cnn(C5CC5)c4C3)ncnn12 [Example 5, 4-(1-Cyclopropyl-1,4,5,7-tetrahydro-6H-pyrazolo[3,4-c]pyridin-6-yl)-7-methyl-5-[(3S)-tetrahydrofuran-3-yl]imidazo[5,1-f][1,2,4]triazine]
	0.227 nM	Cc1nc([C@@H]2CCOC2)c2c(N3CCc4c(O)nc(C5CCCC5)nc4C3)ncnn12 [Example 158, 2-cyclopentyl-7-{7-methyl-5-[(3S)-tetrahydrofuran-3-yl]imidazo[5,1-f][1,2,4]triazin-4-yl}-5,6,7,8-tetrahydropyrido[3,4-d]pyrimidin-4-ol]
0.0386 nM	0.205 nM	COc1ccc2c(c1OCCF)CN(c1ncnn3c(C)nc([C@@H]4CCOC4)c13)CC2 [Example 4, 8-(2-Fluoroethoxy)-7-methoxy-2-{7-methyl-5-[(3S)-tetrahydrofuran-3-yl]imidazo[5,1-f][1,2,4]triazin-4-yl}-1,2,3,4-tetrahydroisoquinoline]
0.257 nM	0.194 nM	Cc1nc([C@@H]2CCOC2)c2c(N3CCc4c(c(C5CC5)nn4C)C3)ncnn12 [Example 12, 4-(3-Cyclopropyl-1-methyl-1,4,6,7-tetrahydro-5H-pyrazolo[4,3-c]pyridin-5-yl)-7-methyl-5-[(3S)-tetrahydrofuran-3-yl]imidazo[5,1-f][1,2,4]triazine]
0.265 nM	0.174 nM	Cc1nc([C@@H]2CCOC2)c2c(N3CCc4nn(C5CC5)cc4C3)ncnn12 [Example 11, 4-(2-Cyclopropyl-2,4,6,7-tetrahydro-5H-pyrazolo[4,3-c]pyridin-5-yl)-7-methyl-5-[(3S)-tetrahydrofuran-3-yl]imidazo[5,1-f][1,2,4]triazine]
	0.171 nM	Cc1cccc2c1CN(c1ncnn3c(C)nc([C@@H]4CCOC4)c13)CC2 [Example 155, 8-methyl-2-{7-methyl-5-[(3S)-tetrahydrofuran-3-yl]imidazo[5,1-f][1,2,4]triazin-4-yl}-1,2,3,4-tetrahydroisoquinoline]
0.486 nM	0.147 nM	CCc1nn(C)c2c1CN(c1ncnn3c(C)nc([C@@H]4CCOC4)c13)CC2 [Example 18, 4-(3-ethyl-1-methyl-1,4,6,7-tetrahydro-5H-pyrazolo[4,3-c]pyridin-5-yl)-7-methyl-5-[(3S)-tetrahydrofuran-3-yl]imidazo[5,1-f][1,2,4]triazine]
	0.144 nM	Cc1nc([C@@H]2CCOC2)c2c(N3CCc4nc(C5CC5)ccc4C3)ncnn12 [Example 154, 2-cyclopropyl-6-{7-methyl-5-[(3S)-tetrahydrofuran-3-yl]imidazo[5,1-f][1,2,4]triazin-4-yl}-5,6,7,8-tetrahydro-1,6-naphthyridine]
	0.136 nM	[2H]C([2H])([2H])Oc1nc(C2CC2)nc2c1CN(c1ncnn3c(C)nc([C@@H]4CCOC4)c13)CC2 [Example 173]
